Values quoted from earlier work, collected in PubChem BioAssay AID1259409 (Chemical Carcinogenesis Research Information System (CCRIS), 2018).

Tested on: rodent chemically induced tumor inhibition, incidence and multiplicity
Test: CCRIS tumor inhibitor studies

SMILES | tumour outcome (control, treated, inhibition, significance) (Carcinogen: 1,2-DIMETHYLHYDRAZINE, 540-73-8, Dose [Inhibitor]: 0, 600 MG/L IN DRINKING WATER FOR DURATION OF STUDY BEGINNING 7 D PRIOR TO CARCINOGEN TREATMENT (STUDY DURATION: 8 MO), Route [Inhibitor]: ORAL, Species: RAT, Strain/Sex: BD6/MALE, Target Tissue: Type of Lesion: INTESTINE: TUMOR, Dose [Carcinogen]: 20 MG/KG BW 1/WK FOR 20 WK, Promoter: NONE USED) | tumour outcome (control, treated, inhibition, significance) (Carcinogen: 4-(METHYLNITROSAMINO)-1-(3-PYRIDLY)-1-BUTANONE [64091-91-4], Dose [Inhibitor]: 2.5 MG/KG BW 3X/WK FOR 31 WK BEGINNING 1 WK POST LAST CARCINOGEN DOSE (STUDY DURATION: 52 WK), Route [Inhibitor]: SUBCUTANEOUS, Species: HAMSTER, Strain/Sex: SYRIAN/MALE, Target Tissue: Type of Lesion: LUNG: TUMOR, Dose [Carcinogen]: 10 MG/KG BW 3X/WK FOR 20 WK (STUDY DURATION: 52 WK), Promoter: NONE) | tumour outcome (control, treated, inhibition, significance) (Carcinogen: 4-(METHYLNITROSAMINO)-1-(3-PYRIDLY)-1-BUTANONE [64091-91-4], Dose [Inhibitor]: 2.5 MG/KG BW 3X/WK FOR 31 WK BEGINNING 1 WK POST LAST CARCINOGEN DOSE (STUDY DURATION: 52 WK), Route [Inhibitor]: SUBCUTANEOUS, Species: HAMSTER, Strain/Sex: SYRIAN/MALE, Target Tissue: Type of Lesion: NASAL CAVITY: TUMOR, Dose [Carcinogen]: 10 MG/KG BW 3X/WK FOR 20 WK (STUDY DURATION: 52 WK), Promoter: NONE) | tumour outcome (control, treated, inhibition, significance) (Carcinogen: DIETHYLNITROSAMINE, 55-18-5, Dose [Inhibitor]: 0, 600 MG/L IN DRINKING WATER BEGINNING 3 D PRIOR TO FIRST CARCINOGEN DOSE AND CONTINUING TO 14 D POST LAST CARCINOGEN D, Route [Inhibitor]: ORAL, Species: RAT, Strain/Sex: BD6/FEMALE, Target Tissue: Type of Lesion: ESOPHAGUS: TUMOR, Dose [Carcinogen]: 80 MG/KG BW 1/WK FOR 8 WK, Promoter: NONE USED) | tumour outcome (control, treated, inhibition, significance) (Carcinogen: DIETHYLNITROSAMINE, 55-18-5, Dose [Inhibitor]: 0, 600 MG/L IN DRINKING WATER BEGINNING 3 D PRIOR TO FIRST CARCINOGEN DOSE AND CONTINUING TO 14 D POST LAST CARCINOGEN D, Route [Inhibitor]: ORAL, Species: RAT, Strain/Sex: BD6/FEMALE, Target Tissue: Type of Lesion: LIVER: TUMOR, Dose [Carcinogen]: 80 MG/KG BW 1/WK FOR 8 WK, Promoter: NONE USED) | tumour outcome (control, treated, inhibition, significance) (Carcinogen: DIETHYLNITROSAMINE, 55-18-5, Dose [Inhibitor]: 0, 600 MG/L IN DRINKING WATER FOR DURATION OF STUDY BEGINNING 4 D POST CARCINOGEN TREATMENT (STUDY DURATION: 6 MO), Route [Inhibitor]: ORAL, Species: RAT, Strain/Sex: BD6/FEMALE, Target Tissue: Type of Lesion: ESOPHAGUS: TUMOR, Dose [Carcinogen]: 80 MG/KG BW 1/WK FOR 8 WK, Promoter: NONE USED) | tumour outcome (control, treated, inhibition, significance) (Carcinogen: DIETHYLNITROSAMINE, 55-18-5, Dose [Inhibitor]: 0, 600 MG/L IN DRINKING WATER FOR DURATION OF STUDY BEGINNING 4 D POST CARCINOGEN TREATMENT (STUDY DURATION: 6 MO), Route [Inhibitor]: ORAL, Species: RAT, Strain/Sex: BD6/FEMALE, Target Tissue: Type of Lesion: LIVER: TUMOR, Dose [Carcinogen]: 80 MG/KG BW 1/WK FOR 8 WK, Promoter: NONE USED) | tumour outcome (control, treated, inhibition, significance) (Carcinogen: DIETHYLNITROSAMINE, 55-18-5, Dose [Inhibitor]: 0, 600 MG/L IN DRINKING WATER FOR DURATION OF STUDY BEGINNING 7 D PRIOR TO CARCINOGEN TREATMENT (STUDY DURATION: 6 MO), Route [Inhibitor]: ORAL, Species: RAT, Strain/Sex: BD6/FEMALE, Target Tissue: Type of Lesion: ESOPHAGUS: TUMOR, Dose [Carcinogen]: 80 MG/KG BW 1/WK FOR 8 WK, Promoter: NONE USED) | tumour outcome (control, treated, inhibition, significance) (Carcinogen: DIETHYLNITROSAMINE, 55-18-5, Dose [Inhibitor]: 0, 600 MG/L IN DRINKING WATER FOR DURATION OF STUDY BEGINNING 7 D PRIOR TO CARCINOGEN TREATMENT (STUDY DURATION: 6 MO), Route [Inhibitor]: ORAL, Species: RAT, Strain/Sex: BD6/FEMALE, Target Tissue: Type of Lesion: LIVER: TUMOR, Dose [Carcinogen]: 80 MG/KG BW 1/WK FOR 8 WK, Promoter: NONE USED) | tumour outcome (control, treated, inhibition, significance) (Carcinogen: N-ETHYL-N-NITROSOUREA, 759-73-9, Dose [Inhibitor]: 0, 1000 MG/KG IN DIET FOR 12 MO ADMINISTERED TO OFFSPRING OF CARCINOGEN-TREATED MOTHERS (STUDY DURATION: 12 MO), Route [Inhibitor]: ORAL, Species: RAT, Strain/Sex: ALBINO/MALE, FEMALE, Target Tissue: Type of Lesion: BRAIN: TUMOR, Dose [Carcinogen]: 75 MG/KG BW ADMINISTERED INTRAPERITONEALLY TO MOTHERS 21 D POST CONCEPTION, Promoter: NONE USED) | tumour outcome (control, treated, inhibition, significance) (Carcinogen: N-ETHYL-N-NITROSOUREA, 759-73-9, Dose [Inhibitor]: 0, 1000 MG/KG IN DIET FOR 12 MO ADMINISTERED TO OFFSPRING OF CARCINOGEN-TREATED MOTHERS (STUDY DURATION: 12 MO), Route [Inhibitor]: ORAL, Species: RAT, Strain/Sex: ALBINO/MALE, FEMALE, Target Tissue: Type of Lesion: KIDNEY: TUMOR, Dose [Carcinogen]: 75 MG/KG BW ADMINISTERED INTRAPERITONEALLY TO MOTHERS 21 D POST CONCEPTION, Promoter: NONE USED) | tumour outcome (control, treated, inhibition, significance) (Carcinogen: N-ETHYL-N-NITROSOUREA, 759-73-9, Dose [Inhibitor]: 0, 1000 MG/KG IN DIET FOR 12 MO ADMINISTERED TO OFFSPRING OF CARCINOGEN-TREATED MOTHERS (STUDY DURATION: 12 MO), Route [Inhibitor]: ORAL, Species: RAT, Strain/Sex: ALBINO/MALE, FEMALE, Target Tissue: Type of Lesion: PERIPHERAL NERVES: TUMOR, Dose [Carcinogen]: 75 MG/KG BW ADMINISTERED INTRAPERITONEALLY TO MOTHERS 21 D POST CONCEPTION, Promoter: NONE USED) | tumour outcome (control, treated, inhibition, significance) (Carcinogen: N-ETHYL-N-NITROSOUREA, 759-73-9, Dose [Inhibitor]: 0, 1000 MG/KG IN DIET FOR 12 MO ADMINISTERED TO OFFSPRING OF CARCINOGEN-TREATED MOTHERS (STUDY DURATION: 12 MO), Route [Inhibitor]: ORAL, Species: RAT, Strain/Sex: ALBINO/MALE, FEMALE, Target Tissue: Type of Lesion: SPINAL CHORD: TUMOR, Dose [Carcinogen]: 75 MG/KG BW ADMINISTERED INTRAPERITONEALLY TO MOTHERS 21 D POST CONCEPTION, Promoter: NONE USED) | tumour outcome (control, treated, inhibition, significance) (Carcinogen: URETHANE, 51-79-6, Dose [Inhibitor]: 0.05 UMOL/G BW GIVEN AT 6 HR INTERVALS DURING PERIOD OF 0 TO 36 HR AFTER CARCINOGEN TREATMENT FOLLOWED BY 5 MO OBSERVATI, Route [Inhibitor]: INTRAPERITONEAL, Species: MOUSE, Strain/Sex: ICR/FEMALE, Target Tissue: Type of Lesion: LUNG: PAPILLARY ADENOMA, Dose [Carcinogen]: 0.1 MG/G BW ONCE, Promoter: NONE USED) | outcome (Carcinogen: 1,2-DIMETHYLHYDRAZINE, 540-73-8, Dose [Inhibitor]: 0, 3.2 G/L IN DRINKING WATER FOR DURATION OF STUDY (STUDY DURATION: 34 WK), Route [Inhibitor]: ORAL, Species: RAT, Strain/Sex: SPRAGUE-DAWLEY/MALE, FEMALE, Target Tissue: Type of Lesion: COLON: TUMOR, Dose [Carcinogen]: 21 MG/KG 1/WK FOR 18 WK, Promoter: NONE USED)
Cn1c(=O)c2[nH]cnc2n(C)c1=O | 100%, 100%, 0%, not significant | 12/15 (80.0%), 15/15 (100.0%), -25%, not calculated | 4/15 (26.7%), 4/15 (26.7%), 0%, not calculated | 15%, 9%, 40%, not significant | 90%, 97%, -8%, not significant | 15%, 29%, -93%, not significant | 90%, 97%, -8%, not significant | 14%, 17%, -21%, not significant | 100%, 90%, 10%, not significant | 53/63 (84%), 21/41 (51%), 39%, p<0.05 | 23/63 (37%), 6/41 (15%), 59%, p<0.05 | 24/63 (38%), 5/41 (12%), 68%, p<0.05 | 17/63 (27%), 9/41 (22%), 19%, not significant | 31/59 (53%), 25/43 (58%), -9%, not significant | 
CC(O)C(=O)O (stereo not given) |  |  |  |  |  |  |  |  |  |  |  |  |  |  | 28/29 (97%), 18/28 (64%), not calculated
